Like-named read-outs stand apart in the source and are kept apart here.
Columns and labels:
[1] = system: TNFα production in LPS-stimulated human monocytes; experiment: Cot Monocyte TNFα Cell Based Assay; conditions: Homo sapiens, Monocyte, read-out: EC50 TNF
How it was run: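 5,000 cells/well; cmpd 1 h, 37 °C, 0.5% DMSO final; LPS 50 pg/ml, 4 h, 37 °C; media TNFα by HTRF sandwich (cryptate/XL665), RT overnight; % control vs unstimulated/stimulated wells.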

[2] = target: T1, human Cot catalytic domain (30-397 amino acids) (Homo sapiens, UniProt P41279); experiment: High Throughput Cot Biochemical Assay (KinEASE TR-FRET); conditions: Cot biochemical HTRF (KinEASE TR-FRET) assay; read-out: IC50 HTRF
T1 construct: Purified recombinant human Cot catalytic domain (30-397 amino acids) was purchased from Cama Biosciences; purchased Cama Biosciences (so in the source)
How it was run: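 First, purified human Cot (aa 30-397) at 5 nM phosphorylates an XL665-labeled STK3 peptide (1 μM) at 400 μM ATP, pH 7.0, 0.1% DMSO. Then a europium-conjugated phospho-specific antibody binds the product, giving the TR-FRET signal.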

[3] = TNFα in LPS-stimulated human monocytes

T1 sequence (P41279 30-397): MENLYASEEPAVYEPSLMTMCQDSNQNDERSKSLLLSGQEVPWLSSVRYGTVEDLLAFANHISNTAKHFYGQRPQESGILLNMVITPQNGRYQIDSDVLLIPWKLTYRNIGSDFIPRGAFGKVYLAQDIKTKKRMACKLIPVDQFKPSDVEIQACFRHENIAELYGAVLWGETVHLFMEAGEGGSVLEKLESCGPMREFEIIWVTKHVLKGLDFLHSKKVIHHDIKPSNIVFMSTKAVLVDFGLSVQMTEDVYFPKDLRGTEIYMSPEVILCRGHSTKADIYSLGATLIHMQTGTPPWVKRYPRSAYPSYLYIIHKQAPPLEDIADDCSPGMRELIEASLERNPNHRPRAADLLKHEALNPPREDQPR

| SMILES | EC50 [1, 3] [nM] | IC50 [2] [nM] | EC50 [1] [nM] |
| --- | --- | --- | --- |
| C[C@H](Nc1c(C#N)cnc2c(Cl)cc(N[C@@H](c3ccccc3)c3cn(C4CCN(C(C)(C)C)CC4)nn3)cc12)C(C)(C)C [Example 486, 6-(((S)-(1-(1-(tert-butyl)piperidin-4-yl)-1H-1,2,3-triazol-4-yl)(phenyl)methyl)amino)-8-chloro-4-(((S)-3,3-dimethylbutan-2-yl)amino)quinoline-3-carbonitrile] | 637 | 24 |  |
| CC(C)(C)N1CCC(n2cc([C@@H](Nc3cc(Cl)c4ncc(C#N)c(N[C@@H]5CCCc6ccccc65)c4c3)c3ccccc3)nn2)CC1 [Example 487, 6-(((S)-(1-(1-(tert-butyl)piperidin-4-yl)-1H-1,2,3-triazol-4-yl)(phenyl)methyl)amino)-8-chloro-4-(((R)-1,2,3,4-tetrahydronaphthalen-1-yl)amino)quinoline-3-carbonitrile] | 6780 | 2250 |  |
| CC(C)(C)N1CCC(n2cc([C@@H](Nc3cc(Cl)c4ncc(C#N)c(N[C@H]5CCCc6ccccc65)c4c3)c3ccccc3)nn2)CC1 [Example 488, 6-(((S)-(1-(1-(tert-butyl)piperidin-4-yl)-1H-1,2,3-triazol-4-yl)(phenyl)methyl)amino)-8-chloro-4-(((S)-1,2,3,4-tetrahydronaphthalen-1-yl)amino)quinoline-3-carbonitrile] | 9010 | 1300 |  |
| CC(C)(C)N1CCC(n2cc([C@@H](Nc3cc(Cl)c4ncc(C#N)c(NC[Si](C)(C)C)c4c3)c3ccccc3)nn2)CC1 [Example 489, (S)-6-(((1-(1-(tert-butyl)piperidin-4-yl)-1H-1,2,3-triazol-4-yl)(phenyl)methyl)amino)-8-chloro-4-(((trimethylsilyl)methyl)amino)quinoline-3-carbonitrile] |  | 10 | 184 |
| COc1ccc(Nc2c(C#N)cnc3c(Cl)cc(N[C@@H](c4ccccc4)c4c[nH]nn4)cc23)cn1 [Example 490, (S)-8-chloro-4-((6-methoxypyridin-3-yl)amino)-6-((phenyl (1H-1,2,3-triazol-4-yl)methyl)amino) quinoline-3-carbonitrile] | 3190 | 172 |  |
| COc1ccc(Nc2c(C#N)cnc3c(Cl)cc(N[C@@H](c4ccccc4)c4cn(C5COC5)nn4)cc23)cn1 [Example 491, (S)-8-chloro-4-((6-methoxypyridin-3-yl)amino)-6-(((1-(oxetan-3-yl)-1H-1,2,3-triazol-4-yl)(phenyl)methyl)amino) quinoline-3-carbonitrile] | 3840 | 123 |  |
| COc1ccc(Nc2c(C#N)cnc3c(Cl)cc(N[C@@H](c4ccccc4)c4cn(C5CCN(C(C)(C)C)CC5)nn4)cc23)cn1 [Example 492, (S)-6-(((1-(1-(tert-butyl)piperidin-4-yl)-1H-1,2,3-triazol-4-yl)(phenyl)methyl)amino)-8-chloro-4-((6-methoxypyridin-3-yl)amino)quinoline-3-carbonitrile] | 966 | 65 |  |

Second part, led by results:

| EC50 [1, 3] [nM] | IC50 [2] [nM] | SMILES | EC50 [1] [nM] |
| --- | --- | --- | --- |
| 1220 | 18 | N#Cc1cnc2c(Cl)cc(N[C@@H](c3ccc(F)cc3)c3cn(CCF)nn3)cc2c1Nc1cnc(F)c(F)c1 [Example 493, (S)-8-chloro-4-((5,6-difluoropyridin-3-yl)amino)-6-(((1-(2-fluoroethyl)-1H-1,2,3-triazol-4-yl)(4-fluorophenyl)methyl)amino) quinoline-3-carbonitrile] |  |
| 585 | 47 | N#Cc1cnc2c(Cl)cc(N[C@@H](c3ccc(Cl)cc3)c3cn(C4COC4)nn3)cc2c1Nc1cnc(F)c(F)c1 [Example 494, (S)-8-chloro-6-(((4-chlorophenyl)(1-(oxetan-3-yl)-1H-1,2,3-triazol-4-yl)methyl)amino)-4-((5,6-difluoropyridin-3-yl)amino)quinoline-3-carbonitrile] |  |
| 641 | 32 | N#Cc1cnc2c(Cl)cc(N[C@@H](c3ccc(Cl)cc3)c3c[nH]nn3)cc2c1Nc1cnc(F)c(F)c1 [Example 495, (S)-8-chloro-6-(((4-chlorophenyl)(1H-1,2,3-triazol-4-yl)methyl)amino)-4-((5,6-difluoropyridin-3-yl)amino) quinoline-3-carbonitrile] |  |
